This note sets out measurements from PubChem BioAssay (NCI).

Among the test systems are SF-295 CNS; RXF 393 renal; LOX IMVI melanoma; SF-268 CNS; SK-MEL-2 melanoma; MOLT-4 leukemia; HOP-92 NSCLC; OVCAR-5 ovarian; SNB-75 CNS.
Holding throughout (assay): NCI tumour cell line growth inhibition, 48 h

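Each compound was tested at five concentrations against cells in 96-well plates for 48 hours. Abbreviation: GI50, concentration required for 50% inhibition of growth. TGI marks complete inhibition of growth.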

`CC(=O)C1=C([O-])C(C)OC1=O.CC(=O)C1=C([O-])C(C)OC1=O.[NH-]C1CCCC[C@H]1[NH-].[Pt+4]` (stereo not drawn): the GI50 with SF-295 CNS is over 100 µM; in the experiment with RXF 393 renal it was over 100 µM; with LOX IMVI melanoma, 96.6 µM; in the experiment on SF-268 CNS, over 100 µM; with SK-MEL-2 melanoma, over 100 µM; with MOLT-4 leukemia it was 3.9 µM. The TGI with SF-295 CNS was over 100 µM; with RXF 393 renal, over 100 µM; with LOX IMVI melanoma it was over 100 µM; in the experiment with SF-268 CNS, over 100 µM; in the experiment with SK-MEL-2 melanoma, over 100 µM; in the experiment with MOLT-4 leukemia, 53.9 µM.

In the case of `FC(F)(F)c1ccc2nc(Nc3ccc(Cl)c(Cl)c3)c(-c3ccccc3)nc2c1`, the TGI in the experiment on HOP-92 NSCLC, in the experiment with SF-295 CNS, in the experiment with RXF 393 renal, with LOX IMVI melanoma, in the experiment with SF-268 CNS and in the experiment with SK-MEL-2 melanoma was over 100 µM in each case. In addition, the TGI in the experiment on OVCAR-5 ovarian and in the experiment on MOLT-4 leukemia was over 100 µM each time.

For `COc1cc(Oc2c(O)c(C)c(OC)c(C(C)=O)c2O)c(C(C)=O)c(O)c1C`, the TGI with HOP-92 NSCLC, in the experiment with SF-295 CNS, with SNB-75 CNS, in the experiment on RXF 393 renal, in the experiment with LOX IMVI melanoma and in the experiment on SF-268 CNS was over 100 µM throughout. In the experiment with OVCAR-5 ovarian, this molecule showed a TGI of over 100 µM.

Turning to `O=C1c2ccccc2C(=O)C1C(c1ccc([N+](=O)[O-])cc1)C1C(=O)c2ccccc2C1=O`, the TGI in the experiment on HOP-92 NSCLC was over 100 µM; in the experiment on SF-295 CNS, over 100 µM; in the experiment with SNB-75 CNS it was over 100 µM; in the experiment with RXF 393 renal it was 32.9 µM; in the experiment with LOX IMVI melanoma, 32.5 µM; with SF-268 CNS, 73.6 µM. The TGI with SK-MEL-2 melanoma, in the experiment with OVCAR-5 ovarian and in the experiment with MOLT-4 leukemia was over 100 µM each time.

For the molecule `O=C(Cc1ccccc1)N/N=C(\C1=Nc2ccc([N+](=O)[O-])cc2NC1O)C(O)c1ccc([N+](=O)[O-])cc1` (stereo not drawn), the TGI in the experiment on HOP-92 NSCLC, in the experiment on SF-295 CNS, with SNB-75 CNS, in the experiment on RXF 393 renal, with LOX IMVI melanoma and with SF-268 CNS was over 100 µM each time. For the same molecule, the TGI in the experiment on SK-MEL-2 melanoma and in the experiment with OVCAR-5 ovarian was over 100 µM each time.

For `O=C1CC2C(=O)N(Cc3ccccc3)C1C(S(=O)(=O)c1ccccc1)C2S(=O)(=O)c1ccccc1` (stereo not drawn), the TGI is 4.24 µM in the experiment with HOP-92 NSCLC; 37.4 µM in the experiment on SF-295 CNS; 21.2 µM in the experiment on SNB-75 CNS; 3.5 µM in the experiment with RXF 393 renal; 3.32 µM in the experiment on LOX IMVI melanoma; 12.1 µM in the experiment with SF-268 CNS. The TGI was found to be 31.9 µM in the experiment on OVCAR-5 ovarian and 7.72 µM in the experiment with MOLT-4 leukemia.

Regarding `COC(=O)[C@]1(C)CCC[C@@]2(C)C1CCC1=C[C@@]3(C(C)C)CC[C@]12OO3` (stereo partly drawn), the TGI in the experiment with SF-295 CNS is 64.4 µM; in the experiment with LOX IMVI melanoma, 60.1 µM; with SF-268 CNS it was 66.6 µM; with SK-MEL-2 melanoma, over 100 µM; in the experiment with OVCAR-5 ovarian, 84.9 µM; in the experiment on MOLT-4 leukemia it was 83.1 µM.

Consider `Cc1cccc(C)c1NC(=O)CCCC(=O)C1CCC/C1=N\NC(=O)C(=O)NN` (stereo not drawn), for which the TGI in the experiment on SF-295 CNS, in the experiment on SNB-75 CNS, in the experiment with RXF 393 renal, in the experiment on LOX IMVI melanoma, in the experiment on SF-268 CNS and with SK-MEL-2 melanoma was over 100 µM in each case. Also, the TGI with OVCAR-5 ovarian and in the experiment with MOLT-4 leukemia was over 100 µM each time.

With `CC1CC2(CC[C@@H]1O)OCCO2` (stereo partly drawn), the TGI in the experiment with HOP-92 NSCLC, with SF-295 CNS, in the experiment with RXF 393 renal, in the experiment on LOX IMVI melanoma, with SK-MEL-2 melanoma and in the experiment on MOLT-4 leukemia was over 100 µM in each case.

As to `Cc1c2ccncc2c(C)c2c1[nH]c1ccc(OC(C)(C)C)cc12`, the TGI amounted to 25.1 µM in the experiment with HOP-92 NSCLC; 4.87 µM in the experiment on SF-295 CNS; 3.73 µM in the experiment with SNB-75 CNS; 7.53 µM in the experiment with LOX IMVI melanoma; 25.5 µM in the experiment with SF-268 CNS; 3.88 µM in the experiment on SK-MEL-2 melanoma. The TGI in the experiment on OVCAR-5 ovarian was found to be 54.9 µM; in the experiment on MOLT-4 leukemia it was 4.66 µM.

On to `C=CCc1ccc(O)c(-c2cc(C3Oc4c(-c5cc(CC=C)ccc5O)cc(O)cc4[C@@H]3CO)ccc2O)c1` (stereo partly drawn), for which the TGI was 64.9 µM in the experiment with HOP-92 NSCLC; over 100 µM in the experiment on SF-295 CNS; over 100 µM in the experiment with SNB-75 CNS; 55.8 µM in the experiment with RXF 393 renal; 32.3 µM in the experiment with LOX IMVI melanoma; 82.5 µM in the experiment on SF-268 CNS. The TGI was 45.9 µM in the experiment with SK-MEL-2 melanoma and over 100 µM in the experiment with OVCAR-5 ovarian.

As for `CCC1CN2CCc3cc(OC)c(OC)cc3C2CC1CC1c2cc(OC)c(OC)cc2CCN1C(=O)CNC(=O)OC(C)(C)C` (stereo not drawn), the TGI with SF-295 CNS amounted to 34.4 µM; with SNB-75 CNS, 73.1 µM; with RXF 393 renal, 51.2 µM; with LOX IMVI melanoma, 73.6 µM; in the experiment on SF-268 CNS it was 70.3 µM; in the experiment with SK-MEL-2 melanoma, 33.1 µM. The TGI with OVCAR-5 ovarian is 77.3 µM; in the experiment with MOLT-4 leukemia, 23.1 µM.

For `COC(=O)C(Cc1nc2ccc(Cl)cc2[nH]c1=O)C(=O)C(=O)Nc1ccccc1[N+](=O)[O-]` (stereo not drawn), the TGI in the experiment on SF-295 CNS, in the experiment on SNB-75 CNS, in the experiment with RXF 393 renal, in the experiment on LOX IMVI melanoma, in the experiment on SF-268 CNS and in the experiment on SK-MEL-2 melanoma was over 100 µM in each case. The TGI in the experiment on OVCAR-5 ovarian and in the experiment on MOLT-4 leukemia was over 100 µM throughout.

Consider `CC(C)=CC(=O)CC(=O)C(=O)Nc1ccc(Cl)c(Cl)c1`, for which the TGI with SF-295 CNS, in the experiment on SNB-75 CNS, in the experiment with RXF 393 renal, in the experiment on SF-268 CNS, with SK-MEL-2 melanoma and in the experiment on OVCAR-5 ovarian was over 100 µM in each case. Further, the TGI in the experiment on MOLT-4 leukemia is over 100 µM.

Take `COc1ccc2cc3n(c2c1)CCc1cc(OC)c(OC)cc1-3`: the TGI with HOP-92 NSCLC, with SF-295 CNS, in the experiment with RXF 393 renal, with LOX IMVI melanoma, in the experiment with SF-268 CNS and with SK-MEL-2 melanoma was over 100 µM in each case. Also, the TGI in the experiment on MOLT-4 leukemia was over 100 µM.

With `CCOC(=O)/C(C#N)=C1\N[C@H](C(=O)OCC)CO1`, the TGI is over 100 µM in the experiment with SF-295 CNS; over 100 µM with RXF 393 renal; over 100 µM with LOX IMVI melanoma; over 100 µM with SF-268 CNS; 62.6 µM in the experiment with SK-MEL-2 melanoma; over 100 µM in the experiment with OVCAR-5 ovarian. For the same molecule, the TGI in the experiment with MOLT-4 leukemia was over 100 µM.

As for `CC(CCCOC(c1ccccc1)(c1ccccc1)c1ccccc1)OC(=O)Nc1cc([N+](=O)[O-])cc([N+](=O)[O-])c1` (stereo not drawn), the TGI is over 100 µM in the experiment with SF-295 CNS; 72.5 µM with SNB-75 CNS; over 100 µM in the experiment on RXF 393 renal; over 100 µM with LOX IMVI melanoma; over 100 µM in the experiment on SF-268 CNS; 78.9 µM in the experiment with SK-MEL-2 melanoma. In addition, the TGI with MOLT-4 leukemia was over 100 µM.

As to `O=C(O)c1c[nH]cc1C(=O)O`, the TGI with HOP-92 NSCLC, with SF-295 CNS, with SNB-75 CNS, with RXF 393 renal, in the experiment with LOX IMVI melanoma and in the experiment on SF-268 CNS was over 100 µM throughout. The TGI in the experiment with OVCAR-5 ovarian and with MOLT-4 leukemia was over 100 µM in each case.

Turning to `FC(F)(F)C12C34C=CC5(CCC6(C=CC1(CC3)O6)C52C(F)(F)F)O4` (stereo not drawn), the TGI with HOP-92 NSCLC, in the experiment with SF-295 CNS, with RXF 393 renal, with LOX IMVI melanoma, with SF-268 CNS and in the experiment on SK-MEL-2 melanoma was over 100 µM each time. Besides, the TGI in the experiment on OVCAR-5 ovarian and in the experiment on MOLT-4 leukemia was over 100 µM each time.

Regarding `N#Cc1ccccc1NC(=O)c1ccccc1`, the TGI with HOP-92 NSCLC, in the experiment on SF-295 CNS, in the experiment on SNB-75 CNS, with RXF 393 renal, in the experiment with LOX IMVI melanoma and in the experiment with SF-268 CNS was over 100 µM throughout. Moreover, the TGI with SK-MEL-2 melanoma and in the experiment with OVCAR-5 ovarian was over 100 µM in each case.

`N/N=C(\Cc1ccccc1)NN=C(N)N`: the TGI with HOP-92 NSCLC, in the experiment on SF-295 CNS, in the experiment with SNB-75 CNS, in the experiment with LOX IMVI melanoma, with SF-268 CNS and in the experiment with SK-MEL-2 melanoma was over 100 µM in each case. Besides, the TGI in the experiment on OVCAR-5 ovarian and in the experiment on MOLT-4 leukemia was over 100 µM each time.

As to `C=C(N=[N+]=[N-])c1cn(C2CC(O)C(CO)O2)c(=O)[nH]c1=O` (stereo not drawn), the TGI in the experiment on HOP-92 NSCLC, in the experiment with SF-295 CNS, in the experiment with SNB-75 CNS, in the experiment with RXF 393 renal, with LOX IMVI melanoma and in the experiment with SK-MEL-2 melanoma was over 100 µM throughout. The TGI in the experiment on OVCAR-5 ovarian and in the experiment with MOLT-4 leukemia was over 100 µM throughout.

As to `CCCCCCCCCCCCC(=O)[O-].CCCCCCCCCCCCC(=O)[O-].CCCCCCCCCCCCC(=O)[O-].CCCCCCCCCCCCC(=O)[O-].[Mo+2].[Mo+2]`, the GI50 with HOP-92 NSCLC was 3.56 µM; with SF-295 CNS it was 6.28 µM; in the experiment on RXF 393 renal, 12 µM; in the experiment with LOX IMVI melanoma, 12.1 µM; in the experiment with SF-268 CNS it was 17.3 µM; with SK-MEL-2 melanoma, 12.2 µM. The GI50 in the experiment on OVCAR-5 ovarian was 23.6 µM; in the experiment with MOLT-4 leukemia it was 3.57 µM. The TGI in the experiment on HOP-92 NSCLC was found to be 9.35 µM; with SF-295 CNS, 27.7 µM; with RXF 393 renal, 26.1 µM; in the experiment with LOX IMVI melanoma, 25.2 µM; in the experiment with SF-268 CNS it was 45.1 µM; in the experiment on SK-MEL-2 melanoma, 28 µM. Moreover, the TGI stood at 67 µM in the experiment with OVCAR-5 ovarian and 22.5 µM in the experiment with MOLT-4 leukemia.
